Patent US5177251A, “Halogenated tetraenyl prostaglandin derivatives” (G. D. Searle & Co., priority 1991, dated 1993)

Legend:
gastric acid secretion = test: Gastric acid secretion assay in dogs (Pavlov gastric pouch, meal-stimulated); assay type: in vivo, dog (adult female beagles); conditions: into gastric pouch; for ED50: Canis lupus familiaris, dog, total acid output over 4 hours after feeding, read-out: Gastric Antisecretory (Dog) ED50; for Gastric Antisecretory (Dog), % inhibition at 0.3: at 0.3 (column unit μg/kg)
Text: The standard test used to detect gastric antisecretory activity is described as follows.
Adult female beagles, 6-11 kg body weight, were surgically prepared with innervated (Pavlov) gastric pouches that were drained by Thomas-type gastric cannulae. Following surgical recovery, each dog was trained to stand quietly in a dog restraining sling and was conscious for all studies. Experiments began at least 3 weeks after surgery, and no dog was used more than once per week.
Dogs were food-deprived with access to water for 24 hours prior to experiments. Following a 30 minute basal collection period, the prostaglandins or vehicle were administered into the gastric pouch in a 2-3 ml volume. Thirty minutes later the gastric pouch was emptied and gastric secretion was stimulated by feeding 10-12 oz of dog food (Fromm All Beef, Federal Foods Inc., Thiensville, Wis.). Gastric juice samples were collected from the pouch by gravity drainage over a 4 hour period at 30 minute intervals. The volume of secretion was measured (ml/30 min), and the acidity (mequiv/L) was determined by electrometric titration to pH 7.0 with 0.1 N NaOH. These two parameters were multiplied to obtain the total acid output (mequiv/30 minutes) for each collection period.
Percent reduction of total acid output from control was calculated over each 4 hour experiment for doses of prostaglandin. ED50 values and 95% confidence limits were determined from inhibition of secretion curves.

[1] = test system: ethanol-induced gastric lesions; test: Ethanol induced gastric lesion assay in rats (cytoprotective); assay type: in vivo, male Charles River rats; conditions: rat, oral, 30 minutes before absolute ethanol; read-out: Ethanol-Induced Gastric Lesion *MED (Minimal effective dose)
Procedure: In the assay, 0.005-0.5 mg/kg is orally administered to adult 180-220 gram male Charles River rats which have been deprived of food for 24 hours. Thirty minutes later, 1.0 ml of absolute ethanol is administered intragastrically. The rats are sacrificed 60 minutes after alcohol administration and the gastric mucosa are visually examined for the presence of lesions. The number and severity of lesions are scored. A compound is judged active at the concentration evaluated if it provides a statistically significant reduction in the number and/or severity of lesions compared to the control group.

diarrhea = test: Diarrheal assay in rats; assay type: in vivo, male Charles River rats; conditions: intragastric, up to 8 hours
Procedure: (§1) Diarrhea is an undesirable side effect commonly associated with antisecretory and cytoprotective prostaglandins. […] Groups of 6 adult male Charles River rats weight rang®180 to 200 g, are fasted for 24 hours prior to administering the test substance. The prostaglandin to be tested is administered intragastrically in iso-osmotic phosphate buffer at a volume of 10 ml/kg at doses ranging from 100 to 3000 μg/kg. Control animals receive only the vehicle. The rats are placed in individual wire mesh cages and t he trays lined with brown paper. Diarrhea is assessed at hourly intervals on all or none basis for up to 8 hours after administration of the prostaglandin. Diarrhea is defined as any loose or watery stool. ED50 values are assessed for each hourly diarrheagenic response.

[2] = Acid stability in acetic acid:THF:water, thin layer chromatography; assay type: physicochemical; conditions: 3:1:1 acetic acid:THF:water, room temperature, TLC, all time points
Procedure: Comparison of Acid Stability of Compound of Example 1 with its parent non-fluorinated analog.
Each compound (4 mg) was separately dissolved in 0.4 ml of a 3:1:1 solution of acetic acid:THF:water and kept at room temperature. Relative decomposition was assessed by thin layer chromatography analysis of aliquots withdrawn at 30 minutes, 1,2, 4 and 6 hours.

Diarrheal assay in rats = assay type: in vivo, male Charles River rats; conditions: in vivo, po; rat, intragastric, up to 8 hours; read-out: Diarrhea Rat ED50
Procedure: as §1

Diarrhea Rat ED50 (diarrhea) [μ/kg] | Compound | ED50 (gastric acid secretion) [µg/kg] | minimal effective dose [1] [µg/kg] | Gastric Antisecretory (Dog), % inhibition at 0.3 (gastric acid secretion) [%] | decomposition at 30 minutes, 1, 2, 4 and 6 hours [2] | TD50 at 8 h (Diarrheal assay in rats) [µg/kg]
 | COC(=O)CC/C=C\CC[C@H]1C(=O)C[C@@H](O)[C@@H]1/C=C/C[C@@](O)(/C=C/C1=CCCC1)CCl (relative stereo) [Example 5, (±)-methyl 7-[2β-[4R-(chloromethyl)-6-(1-cyclopenten-1-yl)-4-hydroxy-1E, 5E-hexadienyl]-3α-hydroxy-5-oxo-1α-cyclopentyl]-4Z-heptenoate] | > 0.1 | 10 |  |  | 
 | COC(=O)CC/C=C\CC[C@H]1C(=O)C[C@@H](O)[C@@H]1/C=C/C[C@@](C)(O)/C=C/C(F)=C(C)C (relative stereo) [Example 8, (±)-methyl 19-fluoro-11α,16R-dihydroxy-16,20,20-trimethyl-9-oxoprosta-4Z,13E,17E, 19-tetraen-1-oate] |  | 1 |  |  | 
> 3160 | COC(=O)CC/C=C\CC[C@H]1C(=O)C[C@@H](O)[C@@H]1/C=C/C[C@@](O)(/C=C/C1=CCCC1)CF [Example 2, methyl 7-[2β-[6-(1-cyclopenten-1-yl)-4R-(fluoromethyl)-4-hydroxy-1E,5E-hexadienyl]-3α-hydroxy-5-oxo-1R,1α-cyclopentyl]-4Z-heptenoate] |  | 1 |  |  | 
 | COC(=O)CC/C=C\CC[C@H]1C(=O)C[C@@H](O)[C@@H]1/C=C/C[C@@](C)(O)/C=C/C=C/C(F)(F)F (relative stereo) [Example 6, (±)-methyl 11α,16R-dihydroxy-16-methyl-9-oxo-20-(trifluoromethyl) prosta-4Z,13E,17E,19E-tetraen-1-oate] |  |  | 84 |  | 
> 3160 | COC(=O)CC/C=C\CC[C@H]1C(=O)C[C@@H](O)[C@@H]1/C=C/C[C@@](O)(/C=C/C1=CCCC1)C(F)(F)F (relative stereo) [Example 4, (±)-methyl 7-[2β-[6-(1-cyclopenten-1yl)-4R-hydroxy-4-(trifluoromethyl)-1E,5E-hexadienyl]-3α-hydroxy-5-oxo-1α-cyclopentyl]-4Z-heptenoate] | > 0.1 | 100 |  |  | 
> 3160 | COC(=O)CC/C=C\CC[C@H]1C(=O)C[C@@H](O)[C@@H]1/C=C/C[C@@](O)(/C=C/C=C(C)C)CF (relative stereo) [Example 10, methyl 16R-(fluoromethyl)-11α,16-dihydroxy-20,20-dimethyl-9-oxoprosta-4Z,13E,17E,19-tetraen-1-oate] | < 0.3 | 25 |  |  | 
> 3160 | COC(=O)CC/C=C\CC[C@H]1C(=O)C[C@@H](O)[C@@H]1/C=C/C[C@@](O)(/C=C/C1=CCCC1)C(F)F (relative stereo) [Example 3, (±)-methyl 7-[2β-[6-(1-cyclopenten-1-yl)-4R-(difluoromethyl)-4-hydroxy-1E,5E-hexadienyl]-3α-hydroxy-5-oxo-1α-cyclopentyl]-4Z-heptenoate] | > 1 | 10 |  |  | 
 | COC(=O)CC/C=C\CC[C@H]1C(=O)C[C@@H](O)[C@@H]1/C=C/C[C@@](C)(O)/C=C/C=C(\C)C(F)(F)F (relative stereo) [Example 7, (±)-methyl 11α,16R-dihydroxy-16,20-dimethyl-9-oxo-20-(trifluoromethyl) prosta-4Z,13E,17E, 19E-tetraen-1-oate] |  | 50 | 74 |  | 
> 3160 | COC(=O)CC/C=C\CC[C@H]1C(=O)C[C@@H](O)[C@@H]1/C=C/C[C@@](O)(/C=C/C1=CCCC1)CF (relative stereo) [Example 1, (±)-methyl 7-[2β-[6-(1-cyclopenten-1-yl)-4R-(fluoromethyl)-4-hydroxy-1E,5E-hexadienyl]-3α-hydroxy-5-oxo-lo-cyclopentyl]-4Z-heptenoate] |  | 1 |  | virtually no decomposition products were observed | 
 | COC(=O)CC/C=C\CC[C@H]1C(=O)C[C@@H](O)[C@@H]1/C=C/C[C@@](C)(O)/C=C/C=C(Cl)Cl (relative stereo) [Example 9, (±)-methyl 20,20-dichloro-11α,16R-dihydroxy-16-methyl-9-oxoprosta-4Z,13E,17E,19-tetraen-1-oate] |  | 2.5 |  |  | 1000
